Key:
[1] = test system: cytotoxic T lymphocytes, P815 target cells; assay: Cytotoxic T lymphocytes (CTL) assay; type: cell-based, C57B1/6 mice and DBA/2 mice; conditions: Mus musculus, P815, 120 h; at 10^-9 M; read-out: CTL activity, % increase compared to IL2 (100%)
Experimental: (§1) Mixed lymphocyte reaction is an in vitro counterpart of the allograft rejection. Briefly, T cell response was obtained when cells taken from two inbred strains from two outbred individuals of any species were mixed in vitro in culture.
(§2) After 4 days incubation, ^3 H thymidine uptake and cytotoxicity assay (CTL) were performed.
(§3) 3 C57B1/6 mice and 3 DBA/2 mice wre killed and lymphocytes prepared using lympholyte M. The cell concentration was adjusted to 10×10^6 cell/ml for each lysis. DBA/2 cells were irradiated with 3000 Rads. 1 ml of the C57 cells+1 ml of the DBA/2 cells+1 ml of the drug at 3 different concentrations were incubated together for 5 days. Positive control was IL-2 at 15 ng/ml final. After 5 days, the CTL and MLR tests were carried out.
P815 target cells were labelled with Cr^51. After labelling, the cells were resuspended to 5×10^4 cells/ml.
100 μl of target cells+100 μl Of T cells were incubated for 4 hrs and then 100 μl of supernatant was counted using a gamma counter.

[2] = test system: T cell response (mixed lymphocyte reaction); assay: Mixed lymphocyte reaction (MLR) assay; type: cell-based, C57B1/6 mice and DBA/2 mice; conditions: at 10^-9 - 10^-5 M
Experimental: as §1, §2, §3
The cells were resuspended and 100 μl of cell suspension were deposited in each of the 96 wells in the plate, 50 μl of Thymidine at 20 μCi/ml was added for 6 hrs. The cells were then collected and counted using a beta counter.

blood cells = assay: Immunophenotyping on blood cells, combination with 5 Fluorouracil; type: in vivo, C57/BLJ6 mice; conditions: N = 4
Experimental: After in vivo drugs analysis, the drugs were evaluated on whole blood for drug stability and toxicity. Furthermore, in vivo/ex vivo analysis was performed on normal and cyclophosphamide immunosuppressed animals plus 5Fu-treated animals. Cell immunophenotyping was performed on mouse-treatedblood and spleen. The following cell surface antigens were analyzed:
CD3 (all T cells), CD4 (T helper/inducer, binds class II-restricted T cells), CD8a (cytotoxic T cells, CTL adhesion), CD11a (T, B, NK, some stem cells, CTL adhesion anti LFA-1α), MAC-1 (monocyte/macrophage), NK (natural killer cells), Ly5 (B cells), CD45 (all leukocytes, protein tyrosine phosphates), and TCR (T cell receptor).
C57/BLJ6 mice (6-8 weeks old) were injected daily for 4 consecutive days, sacrificed at day 5 and immunophenotyping was performed on blood and spleen cells.
The cells were washed twice in PBS, resuspended in 1 ml of RPMI 2% FBS, and incubated for 45 min. on ice with monoclonal antibody. The cells were washed once, fixed with 1% paraformaldehyde, then analyzed using XL Coulter® counter.

DA-3 mammary carcinoma [3] = assay: Tumor outgrowth of breast carcinoma, with cyclophosphamide (Example 92); type: in vivo, Balb/C mice
Experimental: Balb/C Mice (n-5/Gr) were used along with DA-3 mammary carcinoma cell line. The mice were treated from -2 to 13 days. Animals were monitored for tumor takes/tumor size and body weights for three weeks from Day 0 until Day 21. D0 was the day of tumor cell inoculation and D21 was the day of experiment termination.
(§4) Parameters of effect were measured by inhibition of tumor outgrowth and growth rate [tumors measured along the longest axis (length) and the perpendicular shortest axis (width) and the tumor volumes (T.V.±S.E.) was calculated by the formula T.V.=length (cm)×(width cm)^2 /2.] assessment of body weight loss.
The statistical significance of difference between tumor takes and tumor sizes of control-untreated and drug-treated groups is estimated using the Chi-square and Student's t tests respectively with significance determined at n<0.05.
The mice were divided into the following 5 groups:
Gr.1--Normal Saline (0.2 ml/mouse i.p. starting at D2)
Gr.2--CY (100 mg/kg single bolus i.v. at D0)
Gr.3--Compound #1 (25 mg/kg i.p. starting at D2)
Gr.4--Compound #1 (50 mg/kg i.p. starting at D2)
Gr.5--CY (100 mg/kg i.v. at D0+compound #1 50 mg/kg i.p. starting at D2)

DA-3 mammary carcinoma [4] = assay: Compound #1 with Cytoxan 20 mg/kg against established DA-3 mammary carcinoma (Example 93); type: in vivo; conditions: compound #1 25 mg/kg i.p. daily + CTX 20 mg/kg i.v.
Experimental: Combination of compound #1 (25 and 50 mg/kg i.p. daily) plus CTX (20 mg/kg i.v. single bolus) was evaluated against day 4 established DA-3 tumors.

DA-3 mammary carcinoma [5] = assay: Compound #1 with Cytoxan 28 mg/kg against DA-3 mammary carcinoma, tumor sizes (Example 94); type: in vivo, Balb/c mice; design: key: tumor volume = length × width²/2
Experimental: as §4
In another experiment, the CTX treatment was prolonged. Balb/c mice were injected s.c. with 5×10^5 DA-3 tumor cells at day 0. At day 4 when established tumors appeared, tumor-bearing animals were randomized (n=11/gr.) and injected with CTX (at 28 mg/kg) i.v. bolus injections at days 4, 11, and 18. […]

CN(C)c1ncnc2c1ncn2CCCCCOC(=O)N[C@H](CCCNC(=N)N)C(=O)O [Compound #1, N,N-Dimethylaminopurinyl Pentoxycarbonyl D-Arginine]
activation at 0.001 µM [1]: > 80% | MLR [2]: 1.5 - 4 × | CD8+ CD45+ (mean) (blood cells; 5 FU + cpd #1 25 mg/kg): 10.11 | NK+ (mean) (blood cells; 5 FU + cpd #1 25 mg/kg): 3.58 | CD8+ CD45+ (mean) (blood cells; 5 FU + cpd #1 50 mg/kg): 8.65 | NK+ (mean) (blood cells; 5 FU + cpd #1 50 mg/kg): 4.12 | Tumor takes (DA-3 mammary carcinoma [3]; #1 25 mg/kg, day 4): 2/5 | Tumor takes (DA-3 mammary carcinoma [3]; #1 25 mg/kg, day 6): 2/5 | Tumor takes (DA-3 mammary carcinoma [3]; #1 25 mg/kg, day 8): 3/5 | Tumor takes (DA-3 mammary carcinoma [3]; #1 25 mg/kg, day 10): 4/5 | Tumor takes (DA-3 mammary carcinoma [3]; #1 50 mg/kg, day 4): 3/5 | Tumor takes (DA-3 mammary carcinoma [3]; #1 50 mg/kg, day 6): 3/5 | Tumor takes (DA-3 mammary carcinoma [3]; #1 50 mg/kg, day 8): 3/5 | Tumor takes (DA-3 mammary carcinoma [3]; #1 50 mg/kg, day 10): 3/5 | Tumor takes (DA-3 mammary carcinoma [3]; CY 100 mg/kg + #1 50 mg/kg, day 4): 4/5 | Tumor takes (DA-3 mammary carcinoma [3]; CY 100 mg/kg + #1 50 mg/kg, day 6): 5/5 | Tumor takes (DA-3 mammary carcinoma [3]; CY 100 mg/kg + #1 50 mg/kg, day 8): 5/5 | Tumor takes (DA-3 mammary carcinoma [3]; CY 100 mg/kg + #1 50 mg/kg, day 10): 5/5 | anti-tumor effect (DA-3 mammary carcinoma [4]): no significant effect | tumor size (DA-3 mammary carcinoma [5]; BCH-1393 50 mg/kg + CTX 28 mg/kg, day 7): 6.5 | tumor size (DA-3 mammary carcinoma [5]; BCH-1393 50 mg/kg + CTX 28 mg/kg, day 9): 12.6 | tumor size (DA-3 mammary carcinoma [5]; BCH-1393 50 mg/kg + CTX 28 mg/kg, day 11): 20.2 | tumor size (DA-3 mammary carcinoma [5]; BCH-1393 50 mg/kg + CTX 28 mg/kg, day 14): 9.5 | tumor size (DA-3 mammary carcinoma [5]; BCH-1393 50 mg/kg + CTX 28 mg/kg, day 16): 41.7 | tumor size (DA-3 mammary carcinoma [5]; BCH-1393 50 mg/kg + CTX 28 mg/kg, day 18): 44.9 | tumor size (DA-3 mammary carcinoma [5]; BCH-1393 50 mg/kg + CTX 28 mg/kg, day 21): 63.4 | tumor size (DA-3 mammary carcinoma [5]; BCH-1393 50 mg/kg + CTX 28 mg/kg, day 23): 69.6 | tumor size (DA-3 mammary carcinoma [5]; BCH-1393 50 mg/kg + CTX 28 mg/kg, day 25): 95.4 | tumor size (DA-3 mammary carcinoma [5]; BCH-1393 50 mg/kg + CTX 28 mg/kg, day 28): 104.2 | tumor size (DA-3 mammary carcinoma [5]; BCH-1393 50 mg/kg + CTX 28 mg/kg, day 30): 115.8 | tumor size (DA-3 mammary carcinoma [5]; BCH-1393 50 mg/kg Ip (Days 3-28) + CTX 28 mg/kg Iv (days 4, 11, 18), day 4): 3.6 | tumor size (DA-3 mammary carcinoma [5]; single agent (CTX 28 mg/kg days 4, 11, 18, or BCH-1393 50 mg/kg days 3-28), day 4): 2.7 | tumor size (DA-3 mammary carcinoma [5]; single agent (CTX 28 mg/kg or BCH-1393 50 mg/kg), day 7): 10.2 | tumor size (DA-3 mammary carcinoma [5]; single agent (CTX 28 mg/kg or BCH-1393 50 mg/kg), day 9): 18.1 | tumor size (DA-3 mammary carcinoma [5]; single agent (CTX 28 mg/kg or BCH-1393 50 mg/kg), day 11): 29.2 | tumor size (DA-3 mammary carcinoma [5]; single agent (CTX 28 mg/kg or BCH-1393 50 mg/kg), day 14): 50.1 | tumor size (DA-3 mammary carcinoma [5]; single agent (CTX 28 mg/kg or BCH-1393 50 mg/kg), day 16): 58.5 | tumor size (DA-3 mammary carcinoma [5]; single agent (CTX 28 mg/kg or BCH-1393 50 mg/kg), day 18): 66.3 | tumor size (DA-3 mammary carcinoma [5]; single agent (CTX 28 mg/kg or BCH-1393 50 mg/kg), day 21): 94.2 | tumor size (DA-3 mammary carcinoma [5]; single agent (CTX 28 mg/kg or BCH-1393 50 mg/kg), day 23): 131.4 | tumor size (DA-3 mammary carcinoma [5]; single agent (CTX 28 mg/kg or BCH-1393 50 mg/kg), day 25): 130.9 | tumor size (DA-3 mammary carcinoma [5]; single agent (CTX 28 mg/kg or BCH-1393 50 mg/kg), day 28): 152.5 | tumor size (DA-3 mammary carcinoma [5]; single agent (CTX 28 mg/kg or BCH-1393 50 mg/kg), day 30): 187.2

Source: patent publication US5994361A, “Substituted purinyl derivatives with immunomodulating activity” (priority 1995, dated 1999)
